In patent publication US12077503B2, “Substituted cyclic amides and their use as herbicides” (FMC CORPORATION, priority 2015, dated 2024):

Key:
Type in all cases: in vivo
[1] = test system: redroot pigweed (Amaranthus retroflexus); assay: Test G Post-Emergence Protocol; conditions: Amaranthus retroflexus, post-emergence, 312 h, read-out: Pigweed, Redroot damage rating
In short: (§1)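 Post-emergence herbicidal damage, scored visually 0–100 at 13 days. Application at 15.625, 62.5 or 250 g/ha onto 8-day-old plants grown under glasshouse control.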

[2] = test system: corn (Zea mays); assay: Test G Post-Emergence Protocol; conditions: Zea mays, post-emergence, 312 h, read-out: Corn damage rating
In short: as §1

[3] = test system: giant foxtail (Setaria faberi); assay: Test G Post-Emergence Protocol; conditions: Setaria faberi, post-emergence, 312 h, read-out: Foxtail, Giant damage rating
In short: as §1

[4] = test system: ivy-leaved morning glory (Ipomoea hederacea); assay: Test G Post-Emergence Protocol; conditions: Ipomoea, post-emergence, 312 h, read-out: Morningglory, Ivy-leaved damage rating
In short: as §1

[5] = test system: velvetleaf (Abutilon theophrasti); assay: Test G Post-Emergence Protocol; conditions: Abutilon theophrasti, post-emergence, 312 h, read-out: Velvetleaf damage rating
In short: as §1

[6] = test system: barnyardgrass (Echinochloa crus-galli); assay: Test G Post-Emergence Protocol; conditions: Echinochloa crus-galli, post-emergence, 312 h, read-out: Barnyardgrass damage rating
In short: as §1

[7] = test system: redroot pigweed (Amaranthus retroflexus); assay: Test G Pre-Emergence Protocol; conditions: Amaranthus retroflexus, pre-emergence, 312 h, evaluated after 13 days
In short: (§2)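 Pre-emergence spray, 15.625/62.5/250 g/ha, vehicle acetone:water 50:50 + 0.5% Tween 20, applied 1 d after sowing. Glasshouse 24/16° C, 14 h light, 65% RH, watered twice daily. Visual damage rating at 13 d, 0–100 scale.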

[8] = test system: corn (Zea mays); assay: Test G Pre-Emergence Protocol; conditions: Zea mays, pre-emergence, 312 h, evaluated after 13 days
In short: as §2

[9] = test system: giant foxtail (Setaria faberi); assay: Test G Pre-Emergence Protocol; conditions: Setaria faberi, pre-emergence, 312 h, evaluated after 13 days
In short: as §2

[10] = test system: ivy-leaved morning glory (Ipomoea hederacea); assay: Test G Pre-Emergence Protocol; conditions: Ipomoea, pre-emergence, 312 h, evaluated after 13 days
In short: as §2

[11] = test system: velvetleaf (Abutilon theophrasti); assay: Test G Pre-Emergence Protocol; conditions: Abutilon theophrasti, pre-emergence, 312 h, evaluated after 13 days
In short: as §2

[12] = test system: barnyardgrass (Echinochloa crus-galli); assay: Test G Pre-Emergence Protocol; conditions: Echinochloa crus-galli, pre-emergence, 312 h, evaluated after 13 days
In short: as §2

[13] = 15.625 g ai/ha, evaluated after 13 days (100=total damage to plant; 0=no damage to plant)
[14] = 62.5 g ai/ha, evaluated after 13 days, 100=total damage to plant, 0=no damage to plant
[15] = 250 g ai/ha, evaluated after 13 days, 100=total damage to plant, 0=no damage to plant

COc1c(F)cc(C2CN(C)C(=O)C2C(=O)Nc2cccc(F)c2F)cc1F (stereo not drawn) [Compound 1702]
80%: plant injury at 250 g/ha [2, 15] | pest or weed control at 62.5 g/ha [3, 14] | pest or weed control at 250 g/ha [3, 15] | pest or weed control at 250 g/ha [6, 15] | pest or weed control at 62.5 g/ha ([9]; 62.5 g ai/ha, 100=total damage to plant, 0=no damage to plant, read-out: Foxtail, Giant damage rating)
50%: pest or weed control at 250 g/ha ([7]; 250 g ai/ha, read-out: Pigweed, Redroot damage rating (100=total damage to plant; 0=no damage to plant)) | pest or weed control at 15.625 g/ha ([12]; 15.625 g ai/ha, read-out: Barnyardgrass damage rating (100=total damage to plant; 0=no damage to plant))
20%: plant injury at 15.625 g/ha [2, 13] | plant injury at 62.5 g/ha [2, 14] | pest or weed control at 62.5 g/ha [5, 14] | plant injury at 15.625 g/ha ([8]; 15.625 g ai/ha, read-out: Corn damage rating (100=total damage to plant; 0=no damage to plant))
90%: plant injury at 250 g/ha ([8]; 250 g ai/ha, read-out: Corn damage rating (100=total damage to plant; 0=no damage to plant)) | pest or weed control at 250 g/ha ([9]; 250 g ai/ha, read-out: Foxtail, Giant damage rating (100=total damage to plant; 0=no damage to plant)) | pest or weed control at 250 g/ha ([12]; 250 g ai/ha, read-out: Barnyardgrass damage rating (100=total damage to plant; 0=no damage to plant))
70%: pest or weed control at 15.625 g/ha [3, 13] | pest or weed control at 250 g/ha [4, 15] | pest or weed control at 250 g/ha [5, 15] | pest or weed control at 62.5 g/ha [6, 14] | plant injury at 62.5 g/ha ([8]; 62.5 g ai/ha, 100=total damage to plant, 0=no damage to plant, read-out: Corn damage rating) | pest or weed control at 15.625 g/ha ([9]; 15.625 g ai/ha, read-out: Foxtail, Giant damage rating (100=total damage to plant; 0=no damage to plant)) | pest or weed control at 250 g/ha ([11]; 250 g ai/ha, read-out: Velvetleaf damage rating (100=total damage to plant; 0=no damage to plant)) | pest or weed control at 62.5 g/ha ([12]; 62.5 g ai/ha, 100=total damage to plant, 0=no damage to plant, read-out: Barnyardgrass damage rating)
0%: pest or weed control at 15.625 g/ha ([7]; 15.625 g ai/ha, read-out: Pigweed, Redroot damage rating (100=total damage to plant; 0=no damage to plant)) | pest or weed control at 62.5 g/ha ([7]; 62.5 g ai/ha, 100=total damage to plant, 0=no damage to plant, read-out: Pigweed, Redroot damage rating) | pest or weed control at 15.625 g/ha ([10]; 15.625 g ai/ha, read-out: Morningglory, Ivy-leaved damage rating (100=total damage to plant; 0=no damage to plant)) | pest or weed control at 15.625 g/ha ([11]; 15.625 g ai/ha, read-out: Velvetleaf damage rating (100=total damage to plant; 0=no damage to plant))
10%: pest or weed control at 15.625 g/ha [1, 13] | pest or weed control at 62.5 g/ha [1, 14] | pest or weed control at 15.625 g/ha [4, 13] | pest or weed control at 15.625 g/ha [5, 13] | pest or weed control at 62.5 g/ha ([11]; 62.5 g ai/ha, 100=total damage to plant, 0=no damage to plant, read-out: Velvetleaf damage rating)
30%: pest or weed control at 62.5 g/ha ([10]; 62.5 g ai/ha, 100=total damage to plant, 0=no damage to plant, read-out: Morningglory, Ivy-leaved damage rating)
60%: pest or weed control at 62.5 g/ha [4, 14] | pest or weed control at 15.625 g/ha [6, 13]
40%: pest or weed control at 250 g/ha [1, 15] | pest or weed control at 250 g/ha ([10]; 250 g ai/ha, read-out: Morningglory, Ivy-leaved damage rating (100=total damage to plant; 0=no damage to plant))
